Assay results reported in patent US20190352663A1 (priority 2018, published 2019).

Key:
PtoDC3000Δcip1 = type: cell-based, Pseudomonas syringae pv. tomato; conditions: 100 μg/mL
CsPR1 = type: in vivo, C. sinensis; conditions: 2 mM sprayed on leaves; 48 hours
CsSAG12-4 = type: in vivo, C. sinensis; conditions: 2 mM sprayed on leaves; 48 hours
CsAALP = type: in vivo, C. sinensis; conditions: 2 mM sprayed on leaves; 48 hours; not statistically significant
CsSAG12-1 = type: in vivo, C. sinensis; conditions: 2 mM sprayed on leaves; 48 hours; not statistically significant
[1] = target: CsRD21a-Flag expressed in N. benthamiana and secreted into the apoplast (Citrus sinensis); assay: cell-based or functional assay
[2] = target: papain (Sigma-Aldrich), a PLCP from papaya (papaya) (UniProt P00784); assay: cell-based or functional assay
UniProt P00784, sequence (P00784 134-345 limits assumed): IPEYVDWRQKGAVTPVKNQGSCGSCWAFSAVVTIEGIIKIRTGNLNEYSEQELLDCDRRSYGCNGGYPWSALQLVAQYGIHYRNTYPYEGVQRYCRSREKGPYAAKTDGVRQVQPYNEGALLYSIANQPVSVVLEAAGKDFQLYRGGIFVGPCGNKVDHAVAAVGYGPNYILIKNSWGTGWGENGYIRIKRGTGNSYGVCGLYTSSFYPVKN

papain
inhibitory effect on bacterial growth in artificial media (PtoDC3000Δcip1): not observed

O=C(O)c1ccccc1O [SA, salicylic acid]
expression of CsPR1 (CsPR1): increase | expression of CsSAG12-4 (CsSAG12-4): significantly up-regulated | expression of CsAALP (CsAALP): trend of increased expression | expression of CsSAG12-1 (CsSAG12-1): trend of increased expression

purified recombinant SDE1 protein (tag-free after removal of the His-SUMO tag)
CsRD21a activity (ABPP, ImageJ signal intensity) (% reduction at 0.8 µM SDE1) [1]: 9 | CsRD21a activity (ABPP, ImageJ signal intensity) (% reduction at 1.6 µM SDE1) [1]: 62 | CsRD21a activity (ABPP, ImageJ signal intensity) (% reduction at 3.2 µM SDE1) [1]: 96 | DCG-04 labeling of papain (ABPP) (% reduction at 1.6 µM SDE1) [2]: 53
